According to patent publication US11464763B2, “Parasiticidal compositions comprising an isoxazoline active agent, methods and uses thereof” (BOEHRINGER INGELHEIM ANIMAL HEALTH USA INC., priority 2011, dated 2022):

Legend:
[1] = test system: Rhipicephalus (Boophilus) microplus; assay: Pour-on tick weight efficacy against Rhipicephalus (Boophilus) microplus in cattle (Example 15); format: in vivo
Protocol: The efficacy of two pour-on formulations of the invention comprising Compound A at doses of 2.5 mg/kg and 10 mg/kg were tested against infestations of Rhipicephalus (Boophilus) microplus ticks compared with an untreated control. Five healthy head of cattle of 6 to 15 months of age weighing between 100 to 200 kg were used in each study group. Cattle in Group 1 were untreated (control). Cattle in Group 2 were treated on Day 0 with a pour-on formulation comprising Compound A at a concentration of 2.5% (w/v) in DES at a dose of 2.5 mg/kg; and cattle in Group 3 were treated on Day 0 with a pour-on formulation comprising Compound A at a concentration of 10% (w/v) in DES at a dose of 10 mg/kg. Several weeks before treatment, cattle are infested three times a week with approximately 2500 Rhipicephalus (Boophilus) microplus larvae to establish ongoing infestations. Cattle in Groups 2 and 3 were treated with the respective compositions on Day 0 by measuring the required amount of the solution into a marked disposable syringe and applying the material evenly along the mid-line of the back of each animal from the withers to the tail head.
Each animal was challenged by infestation with approximately 5000 R. microplus larvae on Days 7 and 21 and every 14 days thereafter. Ticks dropping from each animal in the previous 24 hours were collected daily and counted from Day 1 until the end of the study. Since the life cycle of the ticks from the point of infestation with larvae until engorged ticks fall off is approximately 21 days (average), the assessment of efficacy for the challenges on Days 7 and 21 and every 14 days thereafter, was done for a range of 7 or 8 days starting approximately 21 days after the challenge. The assessment of efficacy at the beginning of the study was done from day 1 until Day 21.
In addition, the ticks collected were weighed as a group to measure the impact of the treatment on the weight gain of the ticks compared to the control to assess the vitality and reproductive capability of the treated ticks. […] Tables 16A and 16B show the % efficacy of the two pour-on formulations based on the weight of the ticks collected. […] As evidenced from the tables and the figures, the pour-on formulations of the invention at both 2.5 mg/kg and 10 mg/kg provide excellent efficacy against Rhipicephalus (Boophilus) microplus ticks for an extended period of time. […] Furthermore, as shown in Tables 16A and 16B, the two pour-on compositions were extremely effective against ticks based on the weight of the ticks collected. […] The extremely long lasting efficacy above 90% for pour-on composition against Rhipicephalus (Boophilus) microplus ticks is remarkable compared with pour-on formulations known in the art.

Linognathus vituli = assay: Pour-on efficacy against Linognathus vituli (sucking lice) in cattle (Example 16); format: in vivo
Protocol: The efficacy of two pour-on formulations of the invention comprising isoxazoline Compound A at doses of 2.5 mg/kg and 10 mg/kg were tested against natural and induced infestations with Linognathus vituli (sucking lice) in cattle compared with an untreated control. Four healthy head of cattle weighing between 100 to 300 kg were used in each study group. Cattle in Group 1 were untreated (control). Cattle in Group 2 were treated on Day 0 with a pour-on formulation comprising Compound A at a concentration of 2.5% (w/v) in DES at a dose of 2.5 mg/kg; and cattle in Group 3 were treated on Day 0 with a pour-on formulation comprising Compound A at a concentration of 10% (w/v) in DES at a dose of 10 mg/kg. The formulation was applied by measuring the required amount of the solution into a marked disposable syringe and applying the material evenly along the mid-line of the back of each animal from the withers to the tail head.
Live lice (adults plus nymphs) were counted on days 2, 7, 14, 21, 28, 35, 42, 49 and 56 by counting lice on six selected sites approximately 5 cm×15 cm on the body surface of the animal by direct examination. In the absence of lice on the selected sites, a thorough body search was conducted. The total louse counts per animal were determined by summation of the live louse numbers at each site per animal. Tables 17A and 17B below show the efficacy of the two pour-on formulations against Linognathus vituli over 56 days. As the tables show, both pour-on formulations were efficacious through at least day 56 of the study with 100% efficacy observed starting day 7. Efficacy on day 2 of the study was greater than 90% in each of the study groups. The long lasting efficacy against Linognathus vituli from one topical treatment is unexpected and surprising.

O=C(CNC(=O)c1ccc(C2=NOC(c3cc(Cl)cc(C(F)(F)F)c3)(C(F)(F)F)C2)c2ccccc12)NCC(F)(F)F (stereo not drawn) [Compound A, 4-[5-[3-chloro-5-(trifluoromethyl)phenyl]-4,5-dihydro-5-(trifluoromethyl)-3-isoxazolyl]-N-[2-oxo-2-[(2,2,2-trifluoroethyl)amino]ethyl]-1-naphthalanecarboxamide]
Average % Efficacy (Tick Weight) ([1]; Group 2: pour-on 2.5% (w/v) in DES, 2.5 mg/kg, Day 1-21): 69.1%
Average % Efficacy (Tick Weight) ([1]; Group 2: pour-on 2.5% (w/v) in DES, 2.5 mg/kg, Day 28-34, Challenge Day 7): 81.8%
Average % Efficacy (Tick Weight) ([1]; Group 2: pour-on 2.5% (w/v) in DES, 2.5 mg/kg, Day 41-48, Challenge Day 21): 72.9%
Average % Efficacy (Tick Weight) ([1]; Group 2: pour-on 2.5% (w/v) in DES, 2.5 mg/kg, Day 55-62, Challenge Day 35): 87.7%
Average % Efficacy (Tick Weight) ([1]; Group 2: pour-on 2.5% (w/v) in DES, 2.5 mg/kg, Day 69-76, Challenge Day 49): 84.8%
Average % Efficacy (Tick Weight) ([1]; Group 2: pour-on 2.5% (w/v) in DES, 2.5 mg/kg, Day 83-90, Challenge Day 63): 87.4%
Average % Efficacy (Tick Weight) ([1]; Group 2: pour-on 2.5% (w/v) in DES, 2.5 mg/kg, Day 97-104, Challenge Day 77): 76.0%
Average % Efficacy (Tick Weight) ([1]; Group 2: pour-on 2.5% (w/v) in DES, 2.5 mg/kg, Day 111-118, Challenge Day 91): 74.0%
Average % Efficacy (Tick Weight) ([1]; Group 2: pour-on 2.5% (w/v) in DES, 2.5 mg/kg, Day 132-139, Challenge Day 112): 83.2%
Average % Efficacy (Tick Weight) ([1]; Group 2: pour-on 2.5% (w/v) in DES, 2.5 mg/kg, Day 146-153, Challenge Day 126): 20.6%
Average % Efficacy (Tick Weight) ([1]; Group 2: pour-on 2.5% (w/v) in DES, 2.5 mg/kg, Day 160-167, Challenge Day 140): 63.4%
Average % Efficacy (Tick Weight) ([1]; Group 3: pour-on 10% (w/v) in DES, 10 mg/kg, Day 1-21): 85.4%
Average % Efficacy (Tick Weight) ([1]; Group 3: pour-on 10% (w/v) in DES, 10 mg/kg, Day 28-34, Challenge Day 7): 95.2%
Average % Efficacy (Tick Weight) ([1]; Group 3: pour-on 10% (w/v) in DES, 10 mg/kg, Day 41-48, Challenge Day 21): 98.3%
Average % Efficacy (Tick Weight) ([1]; Group 3: pour-on 10% (w/v) in DES, 10 mg/kg, Day 55-62, Challenge Day 35): 96.6%
Average % Efficacy (Tick Weight) ([1]; Group 3: pour-on 10% (w/v) in DES, 10 mg/kg, Day 69-76, Challenge Day 49): 99.2%
Average % Efficacy (Tick Weight) ([1]; Group 3: pour-on 10% (w/v) in DES, 10 mg/kg, Day 83-90, Challenge Day 63): 98.6%
Average % Efficacy (Tick Weight) ([1]; Group 3: pour-on 10% (w/v) in DES, 10 mg/kg, Day 97-104, Challenge Day 77): 90.2%
Average % Efficacy (Tick Weight) ([1]; Group 3: pour-on 10% (w/v) in DES, 10 mg/kg, Day 111-118, Challenge Day 91): 96.0%
Average % Efficacy (Tick Weight) ([1]; Group 3: pour-on 10% (w/v) in DES, 10 mg/kg, Day 132-139, Challenge Day 112): 92.4%
Average % Efficacy (Tick Weight) ([1]; Group 3: pour-on 10% (w/v) in DES, 10 mg/kg, Day 146-153, Challenge Day 126): 61.4%
Average % Efficacy (Tick Weight) ([1]; Group 3: pour-on 10% (w/v) in DES, 10 mg/kg, Day 160-167, Challenge Day 140): 76.3%
% Reduction (Linognathus vituli; Group 2: pour-on 2.5% in DES, 2.5 mg/kg, Day 2): 92%
% Reduction (Linognathus vituli; Group 2: pour-on 2.5% in DES, 2.5 mg/kg, Day 7): 100%
% Reduction (Linognathus vituli; Group 2: pour-on 2.5% in DES, 2.5 mg/kg, Day 14): 100%
% Reduction (Linognathus vituli; Group 2: pour-on 2.5% in DES, 2.5 mg/kg, Day 21): 100%
% Reduction (Linognathus vituli; Group 2: pour-on 2.5% in DES, 2.5 mg/kg, Day 28): 100%
% Reduction (Linognathus vituli; Group 3: pour-on 10% in DES, 10 mg/kg, Day 2): 98%
% Reduction (Linognathus vituli; Group 3: pour-on 10% in DES, 10 mg/kg, Day 7): 100%
% Reduction (Linognathus vituli; Group 3: pour-on 10% in DES, 10 mg/kg, Day 14): 100%
% Reduction (Linognathus vituli; Group 3: pour-on 10% in DES, 10 mg/kg, Day 21): 100%
% Reduction (Linognathus vituli; Group 3: pour-on 10% in DES, 10 mg/kg, Day 28): 100%
efficacy against Linognathus vituli (Linognathus vituli; both pour-on formulations, starting day 7 through at least day 56): 100%
efficacy against Linognathus vituli (Linognathus vituli; each of the study groups, day 2): greater than 90%
% Reduction (Linognathus vituli; live lice counts, Group 2: pour-on 2.5% (w/v) in DES, 2.5 mg/kg, Day 35): 92%
% Reduction (Linognathus vituli; live lice counts, Group 2: pour-on 2.5% (w/v) in DES, 2.5 mg/kg, Day 42): 100%
% Reduction (Linognathus vituli; live lice counts, Group 2: pour-on 2.5% (w/v) in DES, 2.5 mg/kg, Day 49): 100%
% Reduction (Linognathus vituli; live lice counts, Group 2: pour-on 2.5% (w/v) in DES, 2.5 mg/kg, Day 56): 100%
% Reduction (Linognathus vituli; live lice counts, Group 3: pour-on 10% (w/v) in DES, 10 mg/kg, Day 35): 98%
% Reduction (Linognathus vituli; live lice counts, Group 3: pour-on 10% (w/v) in DES, 10 mg/kg, Day 42): 100%
% Reduction (Linognathus vituli; live lice counts, Group 3: pour-on 10% (w/v) in DES, 10 mg/kg, Day 49): 100%
% Reduction (Linognathus vituli; live lice counts, Group 3: pour-on 10% (w/v) in DES, 10 mg/kg, Day 56): 100%
